Source: patent US20240335548A1, “MACROMOLECULES” (Starpharma Pty Ltd, priority 2011, published 2024)
Like-named read-outs stand apart in the source and are kept apart here.

Key:
[1] = Water solubility study on drug loaded dendrimers; assay type: physicochemical
Procedure: Protocol: To 30 mg of dendrimer (freeze-dried from water) was added 100 μL of deionised water. After mixing for 10 minutes, additional aliquots of water (10-30 μL per addition) were added with vortexing and incubation for 10 mins until full dissolution was obtained. This amount is represented in Table 1 as the water solubility of the dendrimer. The equivalent drug solubility is determined by multiplying the % drug loading/100 and is represented in Table 1 (column 3) as Equivalent drug solubility on dendrimer. Finally, the fold increase is obtained by dividing the Equivalent drug solubility on dendrimer by the solubility of the drug and is represented in Table 1 (column 4).

ES2 (Ovarian) = assay: Cell growth inhibition SRB assay; assay type: cell-based
Procedure: (§1) All solutions were prepared in saline (except docetaxel which was made in ethanol). All solutions were stored at −20° C. All values were based on the equivalent drug loading.

PC-3 (Prostate) = assay: Cell growth inhibition SRB assay; assay type: cell-based
Procedure: as §1

H460 (Lung) = assay: Cell growth inhibition SRB assay; assay type: cell-based
Procedure: as §1

PC-3 = assay: IC50 using the MTT assay; assay type: cell-based; conditions: 72 hours
Procedure: (§2) The IC50 using the MTT assay [Wilson, Anne P. (2000). “Chapter 7: Cytotoxicity and viability”. In Masters, John R. W. Animal Cell Culture: A Practical Approach. Vol. 1 (3rd ed.). Oxford: Oxford University Press] was determined against various cancer cell lines after 72 hours.

DU-145 = assay: IC50 using the MTT assay; assay type: cell-based; conditions: 72 hours
Procedure: as §2

MCF-7 = assay: IC50 using the MTT assay; assay type: cell-based; conditions: 72 hours
Procedure: as §2

A2780 = assay: IC50 using the MTT assay; assay type: cell-based; conditions: 72 hours
Procedure: as §2

HT-29 = assay: IC50 using the MTT assay; assay type: cell-based; conditions: 72 hours
Procedure: as §2

A549 = assay: IC50 using the MTT assay; assay type: cell-based; conditions: 72 hours
Procedure: as §2

HCT-116 = assay: IC50 using the MTT assay; assay type: cell-based; conditions: 72 hours
Procedure: as §2

H460 = assay: IC50 using the MTT assay; assay type: cell-based; conditions: 72 hours
Procedure: as §2

MDA-MB-231 (Breast) = assay: Cell growth inhibition SRB assay; assay type: cell-based
Procedure: as §1

A549 (Lung) = assay: Cell growth inhibition SRB assay; assay type: cell-based
Procedure: as §1

MCAS (Ovarian) = assay: Cell growth inhibition SRB assay; assay type: cell-based
Procedure: as §1

A2058 (Melanoma) = assay: Cell growth inhibition SRB assay; assay type: cell-based
Procedure: as §1

HCT116 (Colon) = assay: Cell growth inhibition SRB assay; assay type: cell-based
Procedure: as §1

DU145 (Prostate) = assay: Cell growth inhibition SRB assay; assay type: cell-based
Procedure: as §1

HT29 (Colon) = assay: Cell growth inhibition SRB assay; assay type: cell-based
Procedure: as §1

[2] = Plasma stability study: docetaxel release in mouse plasma; assay type: in vitro ADME; conditions: 37° C.
Procedure: Protocol: To 0.5 mL of mouse plasma was added 0.1 mL of dendrimer solution (2 mg/mL, drug equivalent in saline). The mixtures were vortexed (30 s) then incubated at 37° C. At various timepoints (0.5, 2.5, 4.5, 22 hours) 0.1 mL aliquots were removed and added to 0.2 mL ACN. The resulting mixtures were vortexed (30 s), centrifuged (10 min, 4° C.) filtered and analysed by HPLC (C8, 3.9×150 mm, 5 μm, wavelength=243 nm, 10 μL injections, gradient: 40-80% ACN/H2O (1-7 min), 80% ACN (7-9 min), 80-40% ACN (9-11 min), 40% ACN (11-15 min), 10 mM ammonium formate, pH 7.40) which when compared against a standard (2 mg//mL) provided the concentration of free docetaxel in the sample.

[3] = day 16, one day after final dose
Procedure: The 20 mice were randomised into 5 groups of four mice (mean tumour volume ˜90 mm^3). Animals were eye bled in the morning for baseline blood cell counts and then drug dosing commenced later that day (day 1). […] A second eye bleed was performed on day 11 (Table 7 A-C). Mice were killed one day following the final drug dose (day 16).

[4] = equivalent drug solubility divided by solubility of the drug
[5] = water solubility x % drug loading/100
[6] = ES2, 72 hours, equivalent drug loading, average of duplicate
[7] = PC-3, 72 hours, equivalent drug loading, average of duplicate
[8] = H460, 72 hours, equivalent drug loading, average of duplicate
[9] = MDA-MB-231, 72 hours, equivalent drug loading, average of duplicate
[10] = A549, 72 hours, equivalent drug loading, average of duplicate
[11] = MCAS, 72 hours, equivalent drug loading, average of duplicate
[12] = A2058, 72 hours, equivalent drug loading, average of duplicate
[13] = HCT116, 72 hours, equivalent drug loading, average of duplicate
[14] = DU145, 72 hours, equivalent drug loading, average of duplicate
[15] = HT29, 72 hours, equivalent drug loading, average of duplicate
[16] = deionised water, until full dissolution

BHALys[Lys]32[α-Glu-PTX]32[ε-PEG2300]32 [Example 12]
Water solubility of dendrimer [1]: 15 mg/mL
Fold increase in drug solubility [1, 4]: 10000
Equivalent drug solubility on dendrimer [1, 5]: 3 mg/mL

BHALys[Lys]32[α-PDT-DTX]32[ε-PEG1100]32 [9 (b)]
GI50 (ES2 (Ovarian); [6]): 888 nM
GI50 (PC-3 (Prostate); [7]): 618 nM
GI50 (H460 (Lung); [8]): 365 nM

BHALys[Lys]32[α-PEG1100]32[ε-TDA-DTX]32 [Example 18]
IC50 (PC-3): 5.9 nM
IC50 (DU-145): 11.6 nM
IC50 (MCF-7): 3.3 nM
IC50 (A2780): 5.7 nM
IC50 (HT-29): 1.8 nM
IC50 (A549): 20.3 nM
IC50 (HCT-116): 2.9 nM
IC50 (H460): 7.5 nM

BHALys[Lys]32[α-DGA-Testosterone]32[ε-PEG1100]32 [20 (b)]
Equivalent drug solubility on dendrimer [1]: 11.5 mg/mL
Fold increase in drug solubility [1]: 482
Water solubility of dendrimer [1]: >75 mg/mL

BHALys[Lys]32[α-4-HSBA-4Aba-DTX]32[ε-PEG1100]32 [1 (b)]
GI50 (ES2 (Ovarian); [6]): 16.5 nM
GI50 (MDA-MB-231 (Breast); [9]): 11.5 nM
GI50 (A549 (Lung); [10]): 13 nM
GI50 (MCAS (Ovarian); [11]): 29 nM
GI50 (A2058 (Melanoma); [12]): 9.5 nM
GI50 (HCT116 (Colon); [13]): 8.5 nM
GI50 (PC-3 (Prostate); [7]): 17 nM
GI50 (DU145 (Prostate); [14]): 11.5 nM
GI50 (H460 (Lung); [8]): 13 nM
GI50 (HT29 (Colon); [15]): 12.5 nM

BHALys[Lys]32[α-GFLG-Glu-DTX]32[ε-PEG1100]32 [15 (c)]
IC50 (PC-3): 11.8 nM
IC50 (DU-145): 29.5 nM
IC50 (MCF-7): 8.3 nM
IC50 (A2780): 13.6 nM
IC50 (HT-29): 5.7 nM
IC50 (A549): 8.1 nM
IC50 (HCT-116): 7.2 nM
IC50 (H460): 31.8 nM

BHALys[Lys]32[α-MIDA-DTX]32[ε-PEG1100]32 [6 (b)]
Water solubility of dendrimer [1, 16]: 100 mg/mL
Fold increase in drug solubility [1, 4]: 6400
Equivalent drug solubility on dendrimer [1, 5]: 32 mg/mL
GI50 (ES2 (Ovarian)): 12.5 nM
GI50 (PC-3 (Prostate)): 10.5 nM
GI50 (H460 (Lung)): 11 nM
Docetaxel release in plasma ([2]; 0.5 hours): 7.5 percentage of total docetaxel
Docetaxel release in plasma ([2]; 2.5 hours): 9 percentage of total docetaxel
Docetaxel release in plasma ([2]; 22 hours): 23.5 percentage of total docetaxel

BHALys[Lys]32[α-GILGVP-Glu-DTX]32[ε-t-PEG2300]32 [Example 17]
IC50 (PC-3): 359 nM
IC50 (DU-145): 290 nM
IC50 (MCF-7): 93.7 nM
IC50 (A2780): 291 nM
IC50 (HT-29): 85 nM
IC50 (A549): 160 nM
IC50 (HCT-116): 216 nM
IC50 (H460): 603 nM

BHALys[Lys]32[α-4-HSBA-Cp-DTX]32[ε-PEG1100]32 [Example 4 (c)]
Water solubility of dendrimer [1, 16]: 109 mg/mL
Equivalent drug solubility on dendrimer [1, 5]: 22 mg/mL
Mean Tumour Weights (g) (sd) [3]: 0.079 g
GI50 (ES2 (Ovarian); [6]): 8.6 nM
GI50 (MDA-MB-231 (Breast); [9]): 6.5 nM
GI50 (A549 (Lung); [10]): 8.5 nM
GI50 (MCAS (Ovarian); [11]): 20 nM
GI50 (A2058 (Melanoma); [12]): 8 nM
GI50 (HCT116 (Colon); [13]): 9 nM
GI50 (PC-3 (Prostate); [7]): 21.5 nM
GI50 (DU145 (Prostate); [14]): 12 nM
GI50 (H460 (Lung); [8]): 11 nM
GI50 (HT29 (Colon); [15]): 9.5 nM
Docetaxel release in plasma ([2]; 0.5 hours): 1.5 percentage of total docetaxel
Docetaxel release in plasma ([2]; 2.5 hours): 10 percentage of total docetaxel
Docetaxel release in plasma ([2]; 22 hours): 17.5 percentage of total docetaxel

BHALys[Lys]32[α-Glu-GEM]32[ε-PEG1100]32 [13 (b)]
GI50 (ES2 (Ovarian); [6]): 48 nM
GI50 (MDA-MB-231 (Breast); [9]): 50.5 nM
GI50 (A549 (Lung); [10]): 73 nM
GI50 (MCAS (Ovarian); [11]): 117 nM
GI50 (A2058 (Melanoma); [12]): 100 nM
GI50 (HCT116 (Colon); [13]): 30.5 nM
GI50 (PC-3 (Prostate); [7]): 288 nM
GI50 (DU145 (Prostate); [14]): 99 nM
GI50 (H460 (Lung); [8]): 127 nM
GI50 (HT29 (Colon); [15]): 117 nM

BHALys[Lys]32[α-Glu-Testosterone]32[ε-PEG570]32 [Example 23]
Equivalent drug solubility on dendrimer [1]: 26.6 mg/mL
Fold increase in drug solubility [1]: 1109
Water solubility of dendrimer [1]: >125 mg/mL

BHALys[Lys]32[α-Glu-Testosterone]32[ε-PEG1100]32 [22 (b)]
Equivalent drug solubility on dendrimer [1]: 14.7 mg/mL
Fold increase in drug solubility [1]: 610
Water solubility of dendrimer [1]: >89 mg/mL

BHALys[Lys]32[α-PSSP-DTX]32[ε-PEG1100]32 [2 (b)]
Water solubility of dendrimer [1]: 57 mg/mL
Fold increase in drug solubility [1, 4]: 2800
Equivalent drug solubility on dendrimer [1, 5]: 14 mg/mL
GI50 (ES2 (Ovarian); [6]): 116 nM
GI50 (PC-3 (Prostate); [7]): 110 nM
GI50 (H460 (Lung); [8]): 73 nM
Docetaxel release in plasma ([2]; 0.5 hours): 5 percentage of total docetaxel
Docetaxel release in plasma ([2]; 2.5 hours): 8 percentage of total docetaxel
Docetaxel release in plasma ([2]; 22 hours): 15.5 percentage of total docetaxel

BHALys[Lys]32[α-PEG2-DTX]32[ε-PEG1100]32 [10 (b)]
GI50 (ES2 (Ovarian); [6]): 10.5 nM
GI50 (PC-3 (Prostate); [7]): 9.5 nM
GI50 (H460 (Lung); [8]): 6.5 nM

BHALys[Lys]32[α-o-PDA-DTX]32[ε-PEG1100]32 [7 (b)]
Water solubility of dendrimer [1, 16]: 91 mg/mL
Fold increase in drug solubility [1, 4]: 5000
Equivalent drug solubility on dendrimer [1, 5]: 25 mg/mL
GI50 (ES2 (Ovarian)): 8 nM
GI50 (PC-3 (Prostate)): 6.5 nM
GI50 (H460 (Lung)): 4.5 nM
Docetaxel release in plasma ([2]; 0.5 hours): 20.5 percentage of total docetaxel
Docetaxel release in plasma ([2]; 2.5 hours): 32 percentage of total docetaxel
Docetaxel release in plasma ([2]; 22 hours): 71.5 percentage of total docetaxel

BHALys[Lys]32[α-Glu-DTX]32[ε-PEG1100]32 [5 (b)]
Water solubility of dendrimer [1, 16]: 214 mg/mL
Fold increase in drug solubility [1, 4]: 4000
Equivalent drug solubility on dendrimer [1, 5]: 75 mg/mL
GI50 (ES2 (Ovarian)): 116 nM
GI50 (MDA-MB-231 (Breast)): 50.5 nM
GI50 (A549 (Lung)): 56.5 nM
GI50 (MCAS (Ovarian)): 252 nM
GI50 (A2058 (Melanoma)): 71.5 nM
GI50 (HCT116 (Colon)): 85.5 nM
GI50 (PC-3 (Prostate)): 160 nM
GI50 (DU145 (Prostate)): 148 nM
GI50 (H460 (Lung)): 106 nM
GI50 (HT29 (Colon)): 97.5 nM
Docetaxel release in plasma ([2]; 0.5 hours): 0 percentage of total docetaxel
Docetaxel release in plasma ([2]; 2.5 hours): 0 percentage of total docetaxel
Docetaxel release in plasma ([2]; 22 hours): 4 percentage of total docetaxel

BHALys[Lys]32[α-GGG-Glu-DTX]32[ε-PEG1100]32 [14 (c)]
IC50 (PC-3): 3.8 nM
IC50 (DU-145): 7.3 nM
IC50 (MCF-7): 0.5 nM
IC50 (A2780): 4.6 nM
IC50 (HT-29): 0.5 nM
IC50 (A549): 1.5 nM
IC50 (HCT-116): 2.6 nM
IC50 (H460): 4.3 nM

BHALys[Lys]32[α-DGA-Testosterone]32[ε-PEG570]32 [Example 21]
Equivalent drug solubility on dendrimer [1]: 14.8 mg/mL
Fold increase in drug solubility [1]: 618
Water solubility of dendrimer [1]: >81 mg/mL
